According to patent publication US8148373B2, “Compounds” (AstraZeneca AB, priority 2008, dated 2012):
Where a name gives a salt, the structure may show the parent alone.

Assays:
[1] = target: T1, human muscarinic acetylcholine M3 receptor (M3-ACh) (Homo sapiens, UniProt P20309); assay: Muscarinic 3 Receptor Binding Assay ([3H]NMS competition, SPA); conditions: [3H]NMS 0.1 nM, CHO-K1 cell membranes, 16 hours at room temperature; read-out: M3 pIC50 (converted)
T1 construct: expressed in transfected cells; host or cells: CHO-K1 (Chinese Hamster Ovary) cell membranes
T1 sequence (P20309 whole entry): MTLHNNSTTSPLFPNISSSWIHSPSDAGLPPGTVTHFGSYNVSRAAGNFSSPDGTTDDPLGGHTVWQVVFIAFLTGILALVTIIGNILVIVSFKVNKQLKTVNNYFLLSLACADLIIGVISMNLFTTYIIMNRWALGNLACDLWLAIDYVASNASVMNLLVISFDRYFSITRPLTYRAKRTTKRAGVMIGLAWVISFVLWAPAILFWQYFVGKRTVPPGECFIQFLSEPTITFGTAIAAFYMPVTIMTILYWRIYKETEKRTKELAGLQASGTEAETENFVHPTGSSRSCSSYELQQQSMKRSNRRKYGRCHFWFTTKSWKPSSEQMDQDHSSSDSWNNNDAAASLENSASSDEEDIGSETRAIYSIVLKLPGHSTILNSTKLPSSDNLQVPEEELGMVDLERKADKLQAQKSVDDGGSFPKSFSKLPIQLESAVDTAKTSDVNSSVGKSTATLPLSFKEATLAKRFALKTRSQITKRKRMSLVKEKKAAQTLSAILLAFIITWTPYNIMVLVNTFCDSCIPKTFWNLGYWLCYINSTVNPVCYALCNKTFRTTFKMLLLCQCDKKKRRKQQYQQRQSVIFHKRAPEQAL
Method: Muscarinic 3 Receptor Binding Assay
The affinity (pIC50) of compounds binding to the M3 receptor is determined by competition binding of [^3H]N-methyl scopolamine (NMS) to CHO-K1 (Chinese Hamster Ovary) cell membranes expressing the human muscarinic acetylcholine M3 receptor (M3-ACh) in a scintillation proximity assay (SPA) format.
SPA beads are precoated with membranes and then incubated at 2 mg of beads per well with serial dilutions of compounds of the invention, [^3H]NMS at 0.1 nM, quarter Kd (experimentally determined dissociation constant) and assay buffer (20 mM HEPES pH 7.4 containing 5 mM MgCl2). The assay is conducted in a final volume of 200 μL, in the presence of 1% (v/v) dimethyl sulphoxide (DMSO). Total binding of [^3H]NMS is determined in the absence of competing compound and non-specific binding of [^3H]NMS is determined in the presence of 1 μM atropine. The plates are incubated for 16 hours at room temperature and then read on Wallac Microbeta™ using a normalised ^3H protocol. The pIC50, defined as the negative logarithm of the molar concentration of compound required for 50% reduction in specific [^3H]-NMS binding, is determined.

[2] = target: T2, Adrenergic β2 (H292 cells) (Homo sapiens, UniProt P07550); assay: Assay for Adrenergic β2 Mediated cAMP Production (concentration response, AlphaScreen cAMP detection); type: cell-based; conditions: for EC50: cAMP production, 60 minutes at room temperature, 300 μM rolipram, read-out: β2 pEC50 (converted); for β2 Intrinsic activity: fraction relative to the maximum activity determined for formoterol
T2 construct: endogenous in cells; host or cells: H292 cells
T2 sequence (P07550 whole entry): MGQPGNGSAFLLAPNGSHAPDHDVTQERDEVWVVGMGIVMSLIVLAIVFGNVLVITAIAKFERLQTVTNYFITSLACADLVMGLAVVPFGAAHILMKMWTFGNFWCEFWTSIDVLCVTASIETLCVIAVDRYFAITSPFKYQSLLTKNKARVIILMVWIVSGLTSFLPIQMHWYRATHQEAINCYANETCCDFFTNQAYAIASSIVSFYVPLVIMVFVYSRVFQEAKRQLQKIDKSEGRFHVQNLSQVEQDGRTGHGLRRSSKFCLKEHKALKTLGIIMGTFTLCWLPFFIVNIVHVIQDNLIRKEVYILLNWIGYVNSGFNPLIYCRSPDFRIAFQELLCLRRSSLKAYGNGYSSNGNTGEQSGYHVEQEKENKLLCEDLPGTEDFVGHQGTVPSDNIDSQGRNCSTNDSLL
Method: Assay for Adrenergic β2 Mediated Camp Production
H292 cells are grown in 225 cm2 flasks incubator at 37° C., 5% CO2 in RPMI medium containing 10% (v/v) FBS (foetal bovine serum) and 2 mM L-glutamine.
Adherent H292 cells are removed from tissue culture flasks by treatment with Accutase™ cell detachment solution for 15 minutes. Flasks are incubated for 15 minutes in a humidified incubator at 37° C., 5% CO2. Detached cells are re-suspended in RPMI media (containing 10% (v/v) FBS and 2 mM L-glutamine) at 0.1×10^6 cells per mL. 10000 cells in 100 μL are added to each well of a tissue-culture-treated 96-well plate and the cells incubated overnight in a humidified incubator at 37° C., 5% CO2. The culture media is removed and cells are washed twice with 100 μL assay buffer and replaced with 50 μL assay buffer (HBSS solution containing 10 mM HEPES pH7.4 and 5 mM glucose). Cells are rested at room temperature for 20 minutes after which time 25 μL of rolipram (1.2 mM made up in assay buffer containing 2.4% (v/v) dimethylsulphoxide) is added. Cells are incubated with rolipram for 10 minutes after which time test compounds are added and the cells are incubated for 60 minutes at room temperature. The final rolipram concentration in the assay is 300 μM and final vehicle concentration is 1% (v/v) dimethylsulphoxide. The reaction is stopped by removing supernatants, washing once with 100 μL assay buffer and replacing with 50 μL lysis buffer. The cell monolayer is frozen at −80° C. for 30 minutes (or overnight).
AlphaScreen™ cAMP Detection
The concentration of cAMP (cyclic adenosine monophosphate) in the cell lysate is determined using AlphaScreen™ methodology. The frozen cell plate is thawed for 20 minutes on a plate shaker then 10 μL of the cell lysate is transferred to a 96-well white plate. 40 μL of mixed AlphaScreen™ detection beads pre-incubated with biotinylated cAMP, is added to each well and the plate incubated at room temperature for 3 hours in the dark. The AlphaScreen™ signal is measured using an EnVision spectrophotometer (Perkin-Elmer Inc.) with the recommended manufacturer's settings. cAMP concentrations are determined by reference to a calibration curve determined in the same experiment using standard cAMP concentrations. Concentration response curves for agonists are constructed and data is fitted to a four parameter logistic equation to determine both the pEC50 and Intrinsic Activity. Intrinsic Activity is expressed as a fraction relative to the maximum activity determined for formoterol in each experiment.

| Structure (SMILES) | IC50 [1] | EC50 [2] | β2 Intrinsic activity [2] |
| --- | --- | --- | --- |
| Cc1nc(C(=O)N2CCOC3(CCN(Cc4cccc(CCNCC(O)c5ccc(O)c6c5OCC(=O)N6)c4)CC3)C2)cs1 (single isomer, unassigned; isomer 1) [Example 11, 5-Hydroxy-8-(1-hydroxy-2-(3-((4-(2-methylthiazole-4-carbonyl)-1-oxa-4,9-diazaspiro[5.5]undecan-9-yl)methyl)phenethylamino)ethyl)-2H-benzo[b][1,4]oxazin-3(4H)-one ditrifluoroacetate, Isomer 1] | 0.1 nM | 1.58 nM | 0.8 |
| Cc1nc(C(=O)N2CCOC3(CCN(Cc4cccc(CCNCC(O)c5ccc(O)c6c5OCC(=O)N6)c4)CC3)C2)cs1 (single isomer, unassigned; isomer 2) [Example 13, 5-Hydroxy-8-(1-hydroxy-2-(3-((4-(2-methylthiazole-4-carbonyl)-1-oxa-4,9-diazaspiro[5.5]undecan-9-yl)methyl)phenethylamino)ethyl)-2H-benzo[b][1,4]oxazin-3(4H)-one ditrifluoroacetate, Isomer 2] | 0.0794 nM | 39.8 nM | 0.8 |
| Cc1nc(C(=O)N2CCOC3(CCN(CCOc4ccc(CNC[C@H](O)c5ccc(O)c6[nH]c(=O)sc56)cc4)CC3)C2)cs1 [Example 1, (R)-4-Hydroxy-7-(1-hydroxy-2-(4-(2-(4-(2-methylthiazole-4-carbonyl)-1-oxa-4,9-diazaspiro[5.5]undecan-9-yl)ethoxy)benzylamino)ethyl)benzo[d]thiazol-2(3H)-one ditrifluoroacetate] | 3.16 nM | 63.1 nM | 0.8 |
| Cc1nc(C(=O)N2CCOC3(CCN(CCCCCCCCCNC[C@H](O)c4ccc(O)c5[nH]c(=O)sc45)CC3)C2)cs1 [Example 2, (R)-4-Hydroxy-7-(1-hydroxy-2-(9-(4-(2-methylthiazole-4-carbonyl)-1-oxa-4,9-diazaspiro[5.5]undecan-9-yl)nonylamino)ethyl)benzo[d]thiazol-2(3H)-one ditrifluoroacetate] | 0.316 nM | 12.6 nM | 0.8 |
| Cc1nc(C(=O)N2CCOC3(CCN(CCOc4ccc(CCNC[C@H](O)c5ccc(O)c6[nH]c(=O)sc56)cc4)CC3)C2)cs1 [Example 3, (R)-4-Hydroxy-7-(1-hydroxy-2-(4-(2-(4-(2-methylthiazole-4-carbonyl)-1-oxa-4,9-diazaspiro[5.5]undecan-9-yl)ethoxy)phenethylamino)ethyl)benzo[d]thiazol-2(3H)-one dihydrochloride] | 1 nM | 7.94 nM | 1.0 |
| Cc1nc(C(=O)N2CCOC3(CCN(CCc4ccc(CCNC[C@H](O)c5ccc(O)c6[nH]c(=O)sc56)s4)CC3)C2)cs1 [Example 4, (R)-4-Hydroxy-7-(1-hydroxy-2-(2-(5-(2-(4-(2-methylthiazole-4-carbonyl)-1-oxa-4,9-diazaspiro[5.5]undecan-9-yl)ethyl)thiophen-2-yl)ethylamino)ethyl)benzo[d]thiazol-2(3H)-one ditrifluoroacetate] | 1.26 nM | 15.8 nM | 0.9 |
| Cc1nc(C(=O)N2CCOC3(CCN(CCc4ccc(CCNC[C@H](O)c5ccc(O)c6[nH]c(=O)sc56)cc4)CC3)C2)cs1 [Example 5, (R)-4-Hydroxy-7-(1-hydroxy-2-(4-(2-(4-(2-methylthiazole-4-carbonyl)-1-oxa-4,9-diazaspiro[5.5]undecan-9-yl)ethyl)phenethylamino)ethyl)benzo[d]thiazol-2(3H)-one ditrifluoroacetate] | 2.51 nM | 79.4 nM | 0.9 |
| Cc1nc(C(=O)N2CCOC3(CCN(Cc4cccc(CCNC[C@H](O)c5ccc(O)c6[nH]c(=O)sc56)c4)CC3)C2)cs1 [Example 6, (R)-4-Hydroxy-7-(1-hydroxy-2-(3-((4-(2-methylthiazole-4-carbonyl)-1-oxa-4,9-diazaspiro[5.5]undecan-9-yl)methyl)phenethylamino)ethyl)benzo[d]thiazol-2(3H)-one ditrifluoroacetate] | 0.316 nM | 3.98 nM | 0.9 |
| Cc1nc(C(=O)N2CCOC3(CCN(Cc4cccc(CCNC[C@H](O)c5ccc(O)c6[nH]c(=O)ccc56)c4)CC3)C2)cs1 [Example 7, (R)-8-Hydroxy-5-(1-hydroxy-2-(3-((4-(2-methylthiazole-4-carbonyl)-1-oxa-4,9-diazaspiro[5.5]undecan-9-yl)methyl)phenethylamino)ethyl)quinolin-2(1H)-one ditrifluoroacetate] | 0.501 nM | 6.31 nM | 0.8 |
| Cc1nc(C(=O)N2CCOC3(CCN(CCCOc4ccc(CNC[C@H](O)c5ccc(O)c6[nH]c(=O)sc56)cc4)CC3)C2)cs1 [Example 8, (R)-4-Hydroxy-7-(1-hydroxy-2-(4-(3-(4-(2-methylthiazole-4-carbonyl)-1-oxa-4,9-diazaspiro[5.5]undecan-9-yl)propoxy)benzylamino)ethyl)benzo[d]thiazol-2(3H)-one ditrifluoroacetate] | 3.98 nM | 39.8 nM | 1.0 |
| Cc1ccc(C(=O)N2CCOC3(CCN(Cc4cccc(CCNC[C@H](O)c5ccc(O)c6[nH]c(=O)ccc56)c4)CC3)C2)s1 [Example 9, (R)-8-Hydroxy-5-(1-hydroxy-2-(3-((4-(5-methylthiophene-2-carbonyl)-1-oxa-4,9-diazaspiro[5.5]undecan-9-yl)methyl)phenethylamino)ethyl)quinolin-2(1H)-one ditrifluoracetate] | 2 nM | 5.01 nM | 0.9 |
| Cc1nc(C(=O)N2CCOC3(CCN(CCOc4cccc(CNC[C@H](O)c5ccc(O)c6[nH]c(=O)sc56)c4)CC3)C2)cs1 [Example 10, (R)-4-Hydroxy-7-(1-hydroxy-2-(3-(2-(4-(2-methylthiazole-4-carbonyl)-1-oxa-4,9-diazaspiro[5.5]undecan-9-yl)ethoxy)benzylamino)ethyl)benzo[d]thiazol-2(3H)-one ditrifluoroacetate] | 5.01 nM | 316 nM | 0.9 |
| CCc1ccc(C(=O)N2CCOC3(CCN(Cc4cccc(CCNC[C@H](O)c5ccc(O)c6[nH]c(=O)ccc56)c4)CC3)C2)s1 [Example 12, (R)-5-(2-(3-((4-(5-Ethylthiophene-2-carbonyl)-1-oxa-4,9-diazaspiro[5.5]undecan-9-yl)methyl)phenethylamino)-1-hydroxyethyl)-8-hydroxyquinolin-2(1H)-one ditrifluoroacetate] | 1 nM | 10 nM | 1 |
| Cc1nc(C(=O)N2CCOC3(CCN(Cc4ccc(CCNC[C@H](O)c5ccc(O)c6[nH]c(=O)ccc56)s4)CC3)C2)cs1 [Example 14, (R)-8-Hydroxy-5-(1-hydroxy-2-(2-(5-((4-(2-methylthiazole-4-carbonyl)-1-oxa-4,9-diazaspiro[5.5]undecan-9-yl)methyl)thiophen-2-yl)ethylamino)ethyl)quinolin-2(1H)-one ditrifluoroacetate] | 6.31 nM | 5.01 nM | 0.9 |
